We go through 20 compounds from PubChem BioAssay AID248 (DTP/NCI, 2004).

“And” between values parts separate entries of the source, which are not always exact repeats. Equal entries are not always repeated. Inconclusive results and toxic doses are left out.

The assay concerns L1210 leukemia ip in BDF1 mice, survival T/C. Put plainly: NCI In Vivo Anticancer Drug Screen. Data for tumor model L1210 Leukemia (intraperitoneal) in B6D2F1 (BDF1) mice. The following applies: endpoint: mean survival time, higher = longer survival. The essentials:
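Antitumor effect is assessed in tumor-bearing animals. Survival in the compound arm is compared with a vehicle-dosed control arm and expressed as their quotient.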

The mark [1] stands for this setting: dose: 75.0 mg/kg/injection, schedule: Q01DX001 (ip), vehicle: other.
Where [2] appears, read: dose: 150.0 mg/kg/injection, schedule: Q01DX001 (ip), vehicle: other.
The mark [3] stands for this setting: dose: 100.0 mg/kg/injection, schedule: Q04DX002 (ip), vehicle: Klucel (hydroxypropylcellulose) (HPC).
Where [4] appears, read: dose: 200.0 mg/kg/injection, schedule: Q01DX001 (ip), vehicle: saline.
Where [5] appears, read: dose: 100.0 mg/kg/injection, schedule: Q04DX003 (ip), vehicle: Klucel (hydroxypropylcellulose) (HPC).
Where [6] appears, read: dose: 200.0 mg/kg/injection, schedule: Q04DX003 (ip), vehicle: Klucel (hydroxypropylcellulose) (HPC).
Setting [7] is: dose: 400.0 mg/kg/injection, schedule: Q04DX003 (ip), vehicle: Klucel (hydroxypropylcellulose) (HPC).
[8] abbreviates: dose: 100.0 mg/kg/injection, schedule: Q01DX001 (ip), vehicle: saline.
The mark [9] stands for this setting: dose: 100.0 mg/kg/injection, schedule: Q01DX001 (ip), vehicle: Klucel (hydroxypropylcellulose) (HPC).
Where [10] appears, read: dose: 200.0 mg/kg/injection, schedule: Q01DX001 (ip), vehicle: Klucel (hydroxypropylcellulose) (HPC).
The mark [11] stands for this setting: dose: 50.0 mg/kg/injection, schedule: Q04DX003 (ip), vehicle: saline with Tween-80.
Setting [12] is: dose: 100.0 mg/kg/injection, schedule: Q04DX003 (ip), vehicle: saline with Tween-80.
Setting [13] is: dose: 200.0 mg/kg/injection, schedule: Q04DX002 (ip), vehicle: Klucel (hydroxypropylcellulose) (HPC).
Where [14] appears, read: dose: 400.0 mg/kg/injection, schedule: Q04DX002 (ip), vehicle: Klucel (hydroxypropylcellulose) (HPC).

Turning to `C/C(=C\C(C)C)C1(C)C(=O)NC(=O)NC1=O`, the T/C by setting is: under setting [1], 96 % of control; under setting [2], 109 % of control; (dose: 300.0 mg/kg/injection, schedule: Q01DX001 (ip), vehicle: other) 105 % of control.

As for `CCCCN(CCCC)S(=O)(=O)O`, the T/C by setting is: (dose: 25.0 mg/kg/injection, schedule: Q04DX002 (ip), vehicle: Klucel (hydroxypropylcellulose) (HPC)) 101 % of control; (dose: 50.0 mg/kg/injection, schedule: Q04DX002 (ip), vehicle: Klucel (hydroxypropylcellulose) (HPC)) 108 % of control; under setting [3], 115 % of control.

On to `CC1CN1P(=S)(N1CC1C)N1CC1C` (stereo not drawn), for which the T/C (dose: 2.5 mg/kg/injection, schedule: Q01DX Z (ip), vehicle: saline) was 92 % of control; the T/C (dose: 3.75 mg/kg/injection, schedule: Q01DX015 (ip), vehicle: saline) is 104 % of control; the T/C (dose: 5.0 mg/kg/injection, schedule: Q01DX Z (ip), vehicle: saline) is 95 % of control; the T/C (dose: 6.0 mg/kg/injection, schedule: Q01DX001 (ip), vehicle: saline) was 100 % of control; the T/C (dose: 7.5 mg/kg/injection, schedule: Q01DX015 (ip), vehicle: saline) was 110 % of control; the T/C (dose: 10.0 mg/kg/injection, schedule: Q01DX Z (ip), vehicle: saline) was 98 % of control. For the same compound, the T/C is 113 % of control (dose: 12.0 mg/kg/injection, schedule: Q01DX001 (ip), vehicle: saline); 107 % of control (dose: 12.0 mg/kg/injection, schedule: Q01DX015 (ip), vehicle: saline); 101 % of control (dose: 20.0 mg/kg/injection, schedule: Q01DX Z (ip), vehicle: saline); 104 % of control (dose: 24.0 mg/kg/injection, schedule: Q01DX001 (ip), vehicle: saline); 108 % of control (dose: 48.0 mg/kg/injection, schedule: Q01DX001 (ip), vehicle: saline); 164 % of control (dose: 48.0 mg/kg/injection, schedule: Q01DX015 (ip), vehicle: saline). Also, the T/C was 108 % of control (dose: 50.0 mg/kg/injection, schedule: Q01DX001 (ip), vehicle: saline); 102 % of control (dose: 60.0 mg/kg/injection, schedule: Q01DX015 (ip), vehicle: saline); 117 % of control (dose: 72.0 mg/kg/injection, schedule: Q01DX Z (ip), vehicle: saline); 97 % of control (dose: 96.0 mg/kg/injection, schedule: Q01DX015 (ip), vehicle: saline); 90 % of control (dose: 96.0 mg/kg/injection, schedule: Q01DX Z (ip), vehicle: saline); 152 % of control and 153 % of control (dose: 144.0 mg/kg/injection, schedule: Q01DX001 (ip), vehicle: saline). Further, the T/C was 112 % of control under setting [4] and 107 % of control (dose: 216.0 mg/kg/injection, schedule: Q01DX001 (ip), vehicle: saline).

For the compound `Cc1nc(N)[nH]c(=O)c1CCc1ccccc1`, the T/C was 100 % of control under setting [5], 94 % of control under setting [6] and 100 % of control under setting [7].

In the case of `COC(=O)CC1CCS(=O)(=O)C1` (stereo not drawn), the T/C runs as follows: (dose: 100.0 mg/kg/injection, schedule: Q01DX009 (ip), vehicle: saline with Tween-80) 101 % of control; (dose: 200.0 mg/kg/injection, schedule: Q01DX009 (ip), vehicle: saline with Tween-80) 103 % of control; (dose: 400.0 mg/kg/injection, schedule: Q01DX009 (ip), vehicle: saline with Tween-80) 95 % of control.

With `Nc1nc(N)c(N=Nc2ccc(C(=O)O)cc2)c(=O)[nH]1`, the T/C under setting [8] was 105 % of control and the T/C under setting [4] was 106 % of control.

For `C=C(Cl)CN(C)CC(=C)Cl`, the T/C under setting [8] is 102 % of control.

`O=C1C=C(NCCCCC2CCCCC2)c2ccccc2C1=O`: the T/C under setting [8] is 95 % of control; the T/C under setting [4] is 97 % of control; the T/C (dose: 400.0 mg/kg/injection, schedule: Q01DX001 (ip), vehicle: saline) is 91 % of control.

Consider `Cc1nccnc1S(=O)(=O)c1ccc2ccccc2c1`, for which the T/C was 101 % of control under setting [9] and 97 % of control under setting [10].

For the compound `CC(C)(O)C1C2OC(=O)C1C1(O)CC3OC34C(=O)OC2C14C` (stereo not drawn), the T/C was 100 % of control (dose: 12.5 mg/kg/injection, schedule: Q04DX003 (ip), vehicle: Klucel (hydroxypropylcellulose) (HPC)); 100 % of control (dose: 25.0 mg/kg/injection, schedule: Q04DX003 (ip), vehicle: Klucel (hydroxypropylcellulose) (HPC)); 100 % of control (dose: 50.0 mg/kg/injection, schedule: Q04DX003 (ip), vehicle: Klucel (hydroxypropylcellulose) (HPC)); 102 % of control under setting [1]; 109 % of control under setting [2].

On to `O=C(NC(=O)c1ccc(Cl)c(Cl)c1)Nc1ccccc1C(F)(F)F`, for which the T/C under setting [5] was 102 % of control, the T/C under setting [6] was 98 % of control and the T/C under setting [7] was 98 % of control.

For `S=C(Nc1ccccc1)Sc1ccc(Cl)cc1`, the T/C is, setting by setting: (dose: 25.0 mg/kg/injection, schedule: Q04DX003 (ip), vehicle: saline with Tween-80) 96 % of control; under setting [11], 92 % of control; under setting [12], 101 % of control.

As to `O=S(=O)(O)CCC(CO)(CO)CO`, the T/C reads like this: (dose: 100.0 mg/kg/injection, schedule: Q01DX009 (ip), vehicle: saline) 98 % of control; (dose: 100.0 mg/kg/injection, schedule: Q04DX003 (ip), vehicle: saline) 101 % of control; (dose: 200.0 mg/kg/injection, schedule: Q01DX009 (ip), vehicle: saline) 102 % of control; (dose: 200.0 mg/kg/injection, schedule: Q04DX003 (ip), vehicle: saline) 101 % of control; (dose: 400.0 mg/kg/injection, schedule: Q01DX009 (ip), vehicle: saline) 101 % of control; (dose: 400.0 mg/kg/injection, schedule: Q04DX003 (ip), vehicle: saline) 97 % of control.

Regarding `O=C(O)NNC(=O)NO`, the T/C by setting is: (dose: 100.0 mg/kg/injection, schedule: Q01DX001 (ip), vehicle: saline with Tween-80) 94 % of control; (dose: 200.0 mg/kg/injection, schedule: Q01DX001 (ip), vehicle: saline with Tween-80) 94 % of control; (dose: 400.0 mg/kg/injection, schedule: Q01DX001 (ip), vehicle: saline with Tween-80) 92 % of control.

In the case of `COc1ccc(C(=O)NC(SC)C(N)=O)cc1` (stereo not drawn), the T/C is 90 % of control under setting [3], 101 % of control under setting [13] and 93 % of control under setting [14].

Regarding `O=C1c2cc([N+](=O)[O-])ccc2-c2cc(Cl)c(NC(=O)C(Cl)Cl)cc21`, the T/C (dose: 50.0 mg/kg/injection, schedule: Q01DX001 (ip), vehicle: carboxymethylcellulose (CMC)) is 101 % of control; the T/C (dose: 100.0 mg/kg/injection, schedule: Q01DX001 (ip), vehicle: carboxymethylcellulose (CMC)) is 104 % of control; the T/C (dose: 200.0 mg/kg/injection, schedule: Q01DX001 (ip), vehicle: carboxymethylcellulose (CMC)) is 101 % of control; the T/C (dose: 400.0 mg/kg/injection, schedule: Q01DX001 (ip), vehicle: carboxymethylcellulose (CMC)) is 104 % of control.

As for `Nc1ccc(C(=O)N/N=C/C=C/c2ccccc2)cc1`, the T/C is, setting by setting: under setting [3], 105 % of control; under setting [13], 96 % of control; under setting [14], 99 % of control.

Regarding `CNc1ncnc(Cl)c1N`, the T/C runs as follows: under setting [9], 103 % of control; under setting [10], 107 % of control.

Consider `CC1=CC(C)=Nc2ccc(Cl)cc2N1`, for which the T/C is 97 % of control (dose: 100.0 mg/kg/injection, schedule: Q04DX003 (ip), vehicle: acetone); 101 % of control (dose: 200.0 mg/kg/injection, schedule: Q04DX003 (ip), vehicle: acetone); 92 % of control (dose: 400.0 mg/kg/injection, schedule: Q04DX003 (ip), vehicle: acetone).

For the compound `ClCc1ccc2ccccc2n1`, the T/C is, setting by setting: under setting [11], 104 % of control; under setting [12], 102 % of control; (dose: 200.0 mg/kg/injection, schedule: Q04DX003 (ip), vehicle: saline with Tween-80) 93 % of control.
